Experimental data from the supplement of paper PMC10307832.

Tests used:
Test in all cases: relative viability (nuclei count vs DMSO), 5 days (fraction); higher = more cells survive
SK-LU-1 = system: SK-LU-1
Summary of the method: (§1)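 Dosing by pin tool came one day after lung cancer cell lines were seeded in 1536-well plates, using either one drug or a fixed anchor-drug dose plus five library-drug doses (not always all listed) in √10 steps. After 5 days, nuclei were counted on 4× images. Relative viability is treated-well nuclei count divided by vehicle-well nuclei count, and values are medians of duplicate plates.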

NCI-H23 = system: NCI-H23
Summary of the method: as §1

H3255 = system: H3255
Summary of the method: as §1

NCI-H3122 = system: NCI-H3122
Summary of the method: as §1

NCI-H2126 = system: NCI-H2126
Summary of the method: as §1

ChaGo-K-1 = system: ChaGo-K-1
Summary of the method: as §1

PC-3 [JPC-3] = system: PC-3 [JPC-3]
Summary of the method: as §1

HOP-62 = system: HOP-62
Summary of the method: as §1

HARA = system: HARA
Summary of the method: as §1

COR-L 105 = system: COR-L 105
Summary of the method: as §1

NCI-H2228 = system: NCI-H2228
Summary of the method: as §1

NCI-H661 = system: NCI-H661
Summary of the method: as §1

NCI-H596 = system: NCI-H596
Summary of the method: as §1

NCI-H2405 = system: NCI-H2405
Summary of the method: as §1

201T = system: 201T
Summary of the method: as §1

NCI-H727 = system: NCI-H727
Summary of the method: as §1

HCC-827 = system: HCC-827
Summary of the method: as §1

LCLC-103H = system: LCLC-103H
Summary of the method: as §1

NCI-H650 = system: NCI-H650
Summary of the method: as §1

LOU-NH91 = system: LOU-NH91
Summary of the method: as §1

EKVX = system: EKVX
Summary of the method: as §1

NCI-H1975 = system: NCI-H1975
Summary of the method: as §1

Nc1cccc2c1CN(C1CCC(=O)NC1=O)C2=O (stereo not given) [Lenalidomide] + CC(C)C[C@H](NC(=O)[C@H](Cc1ccccc1)NC(=O)c1cnccn1)B(O)O [Bortezomib] (partner 0.002 µM)
relative viability (SK-LU-1; first compound 0.253 µM): 1.31
relative viability (SK-LU-1; first compound 0.8 µM): 1.38
relative viability (SK-LU-1; first compound 2.53 µM): 1.25
relative viability (SK-LU-1; first compound 8 µM): 0.862
relative viability (NCI-H23; first compound 0.253 µM): 1.12
relative viability (NCI-H23; first compound 0.8 µM): 1.03
relative viability (NCI-H23; first compound 2.53 µM): 1.3
relative viability (NCI-H23; first compound 8 µM): 0.9
relative viability (H3255; first compound 0.253 µM): 0.886
relative viability (H3255; first compound 0.8 µM): 0.612
relative viability (H3255; first compound 2.53 µM): 0.874
relative viability (H3255; first compound 8 µM): 0.828
relative viability (NCI-H3122; first compound 0.253 µM): 1.04
relative viability (NCI-H3122; first compound 0.8 µM): 1.05
relative viability (NCI-H3122; first compound 2.53 µM): 0.98
relative viability (NCI-H3122; first compound 8 µM): 1.13
relative viability (NCI-H2126; first compound 0.253 µM): 1.17
relative viability (NCI-H2126; first compound 0.8 µM): 0.971
relative viability (NCI-H2126; first compound 2.53 µM): 1.12
relative viability (NCI-H2126; first compound 8 µM): 1.1
relative viability (ChaGo-K-1; first compound 0.253 µM): 1.07
relative viability (ChaGo-K-1; first compound 2.53 µM): 1
relative viability (ChaGo-K-1; first compound 8 µM): 1.29
relative viability (PC-3 [JPC-3]; first compound 0.253 µM): 0.872
relative viability (PC-3 [JPC-3]; first compound 0.8 µM): 0.535
relative viability (PC-3 [JPC-3]; first compound 2.53 µM): 0.906
relative viability (PC-3 [JPC-3]; first compound 8 µM): 0.99
relative viability (HOP-62; first compound 0.253 µM): 0.701
relative viability (HOP-62; first compound 0.8 µM): 0.417
relative viability (HOP-62; first compound 2.53 µM): 1.06
relative viability (HOP-62; first compound 8 µM): 0.722
relative viability (HARA; first compound 0.253 µM): 1.07
relative viability (HARA; first compound 0.8 µM): 0.657
relative viability (HARA; first compound 2.53 µM): 1.24
relative viability (HARA; first compound 8 µM): 1.19
relative viability (COR-L 105; first compound 0.253 µM): 0.792
relative viability (COR-L 105; first compound 0.8 µM): 0.824
relative viability (COR-L 105; first compound 2.53 µM): 0.863
relative viability (COR-L 105; first compound 8 µM): 0.797
relative viability (NCI-H2228; first compound 0.253 µM): 1
relative viability (NCI-H2228; first compound 0.8 µM): 0.986
relative viability (NCI-H2228; first compound 2.53 µM): 1.12
relative viability (NCI-H2228; first compound 8 µM): 0.942
relative viability (NCI-H661; first compound 0.253 µM): 0.7
relative viability (NCI-H661; first compound 0.8 µM): 0.75
relative viability (NCI-H661; first compound 2.53 µM): 0.794
relative viability (NCI-H661; first compound 8 µM): 0.755
relative viability (NCI-H596; first compound 0.253 µM): 0.933
relative viability (NCI-H596; first compound 0.8 µM): 0.733
relative viability (NCI-H596; first compound 2.53 µM): 1.39
relative viability (NCI-H596; first compound 8 µM): 0.883
relative viability (NCI-H2405; first compound 0.253 µM): 0.912
relative viability (NCI-H2405; first compound 0.8 µM): 0.418
relative viability (NCI-H2405; first compound 2.53 µM): 0.876
relative viability (NCI-H2405; first compound 8 µM): 0.828
relative viability (201T; first compound 0.253 µM): 1.07
relative viability (201T; first compound 0.8 µM): 0.553
relative viability (201T; first compound 2.53 µM): 1.09
relative viability (201T; first compound 8 µM): 1.11
relative viability (NCI-H727; first compound 0.253 µM): 0.81
relative viability (NCI-H727; first compound 2.53 µM): 1.05
relative viability (NCI-H727; first compound 8 µM): 0.791
relative viability (HCC-827; first compound 0.253 µM): 1.09
relative viability (HCC-827; first compound 0.8 µM): 0.798
relative viability (HCC-827; first compound 2.53 µM): 1.09
relative viability (HCC-827; first compound 8 µM): 1.04
relative viability (LCLC-103H; first compound 0.253 µM): 1.01
relative viability (LCLC-103H; first compound 0.8 µM): 0.966
relative viability (LCLC-103H; first compound 2.53 µM): 1.01
relative viability (LCLC-103H; first compound 8 µM): 0.869
relative viability (NCI-H650; first compound 0.253 µM): 0.854
relative viability (NCI-H650; first compound 2.53 µM): 0.893
relative viability (NCI-H650; first compound 8 µM): 0.577
relative viability (LOU-NH91; first compound 0.253 µM): 0.478
relative viability (LOU-NH91; first compound 0.8 µM): 0.433
relative viability (LOU-NH91; first compound 2.53 µM): 0.501
relative viability (LOU-NH91; first compound 8 µM): 0.522
relative viability (EKVX; first compound 0.253 µM): 1.04
relative viability (EKVX; first compound 0.8 µM): 0.805
relative viability (EKVX; first compound 2.53 µM): 1.17
relative viability (EKVX; first compound 8 µM): 0.856
relative viability (NCI-H1975; first compound 0.253 µM): 0.447
relative viability (NCI-H1975; first compound 0.8 µM): 0.341
relative viability (NCI-H1975; first compound 2.53 µM): 0.412
relative viability (NCI-H1975; first compound 8 µM): 0.379
